This note sets out measurements from patent US11179471B2, “Peptide for cytosolic delivery” (priority 2017, dated 2021).

Entries after “also recorded” stand apart in the source; their conditions may differ. Where two headings read alike, the source gives them in different places. Non-standard residues stand in square brackets, D forms with d. No end group written: not given here. hArg = N=C(N)NCCCC[C@H](N)C(=O)O; Aad = N[C@@H](CCCC(=O)O)C(=O)O

Data set [1] relates to HeLa cells. Briefly: Release of Alexa 488-dextran (10 kDa) into the cytoplasm, confocal microscopy. It is filed as cell-based. The method, then:
Cells; HeLa, peptides; 40 μM, Alexa 488-dextran (10 kDa); 200 μg/mL, treatment; 1 hr in α-MEM(−).
Cells; HeLa, peptides; 40 μM, Alexa 488-dextran (10 kDa); 200 μg/mL, treatment; 1 hr in α-MEM(−). The results are presented as means ±SE (n=3). **; p<0.01 (Student's t-test).
Cells; HeLa, peptides; 40 μM, Alexa 488-dextran (10 kDa); 200 μg/mL, treatment; 1 hr in α-MEM(−). Results are presented as means±SE (n=3). *; p<0.05, **; p<0.01, ***; p<0.001 (one-way ANOVA followed by the Tukey-Kramer honestly significant difference test (post-hoc test)).
In the presence of each peptide obtained in Example 1 (L17E, L17E/Q21E, HA/E1, HA/E2) (40 μM) or in the absence of the peptides (a control, no peptide), HeLa cells and Alexa 488-dextran (Molecular Probes, 10 kDa) (200 μg/mL) were treated in α-MEM(−) for 1 hour. The cells were washed, and observed with a confocal microscope.
In the presence of each peptide obtained in Example 1 (L17E, L17Aad) (40 μM) or in the absence of the peptides (a control, no peptide), HeLa cells and Alexa 488-dextran (Molecular Probes, 10 kDa) (200 μg/mL) were treated in α-MEM(−) for 1 hour. The cells were washed, and observed with a confocal microscope.
In the presence of each peptide obtained in Example 1 (HAad, HA/E2, L17Aad, L17E) (40 μM) or in the absence of the peptides (a control, no peptide), HeLa cells and Alexa 488-dextran (Molecular Probes, 10 kDa) (200 μg/mL) were treated in α-MEM(−) for 1 hour. The cells were washed, and observed with a confocal microscope.
When HeLa cells were incubated with Alexa 488-dextran (10 kDa) (200 μg/mL) as a macromolecular drug model in the presence of HAad (40 μM) in α-MEM(−) for 1 hour, Alexa 488-dextran release into about 75% of cells (cytosol) was observed. In contrast, when the incubation was performed in the presence of L17E, Alexa 488-dextran release into about 50% of the cells was observed.
HeLa cells, Alexa 488-dextran (Molecular Probes, 10 kDa) (200 μg/mL), and HAad; or HeLa cells, Alexa 488-dextran, (Molecular Probes, 10 kDa) (200 μg/mL), and HAad-homoR (20 μM) were treated in α-MEM(−) for 1 hour. The cells were washed, and observed with a confocal microscope.

Data set [2] relates to HeLa cells. Briefly: Intracellular release of Alexa 488-labeled human immunoglobulin (IgG, circa 160 kDa). In kind it is cell-based. To be noted: for cells in which intracellular release of human immunoglobulin was observed: α-MEM(−) 1 hour. The protocol: The cells and human immunoglobulin fluorescently labeled with Alexa 488 (IgG, circa 160 kDa) (500 μg/mL) were incubated in the presence of HAad, HA/E2, or L17E (40 μM each) in α-MEM(−) medium for 1 hour in the same manner as in Example 6.
The cells and human immunoglobulin fluorescently labeled with Alexa 488 (IgG, circa 160 kDa) (50 μg/mL: 1/10 the volume of Example 8) were incubated in the presence of HAad or L17E (40 μM each) in α-MEM(−) medium for 1 hour.
In the presence of HAad or L17E (20 μM each: ½ the amount used in Examples 8 and 9), the cells and human immunoglobulin fluorescently labeled with Alexa 488 (IgG, circa 160 kDa) (500 μg/mL: the same amount as in Example 8) were incubated in α-MEM(−) medium for 1 hour. […] (In FIG. 9, the intracellular release achieved by treatment with a low concentration of HAad was 2.5 times the release achieved by L17E. With respect to the peptide concentration required to detect the signal of intracellularly released human immunoglobulin in 35% of the cells, the concentration of L17E is 40 μM, and the concentration of HAad is 20 μM, which is half the concentration of L17E.)

For data set [3], the system named is mitochondrial membrane of HeLa cells. An excerpt:
Mitochondrial membranes are considered to be rich in acidic lipid, as compared with cell membranes. Accordingly, the effects of the above peptides on a mitochondrial membrane were examined by JC-1 assay. A JC-1 reagent emits red (J-aggregate) fluorescence when the mitochondrial membrane is kept normal and the membrane potential is maintained; and the JC-1 reagent emits green (J-monomer) fluorescence when the mitochondrial membrane is damaged and the membrane potential is not kept normal. After HeLa cells were incubated with HAad, HA/E2, or L17E (40 μM) in α-MEM(−) for 1 hour, JC-1 assay was performed. The percentage of cells that emitted red fluorescence was assayed by flow cytometry.

Data set [4] deals with HeLa cells. Briefly: Nuclear accumulation of NLS-EGFP. It is filed as cell-based. The note with it: NLS-EGFP 10 μM; peptide 40 μM; α-MEM(−) 1 hour. The protocol:
The cells and NLS-EGFP (10 μM) were incubated in the presence of HAad or L17E (40 μM each) in α-MEM(−) medium for 1 hour in the same manner as in Example 6. If NLS-EGFP is intracellularly released while maintaining its activity, localization of green fluorescence in the nuclei is observed. […] A high activity of HAad to release endosome-encapsulated substances was also confirmed in this system.

The subject of data set [5] is HeLa cells transfected with a plasmid encoding loxP-DsRed-loxP-EGFP. Briefly: Genetic recombination assay by intracellular delivery of Cre protein (EGFP expression). To be noted: for proportion of GFP-expressing cells: Cre-His6 10 μM, peptide 40 μM, 1 hour, then 24 hours in α-MEM(+); for increase of genetic recombination as compared with no peptide administration: EGFP expression with no release peptide was 9%. It is filed as cell-based. The method, then:
HeLa cells transfected with a plasmid encoding loxP-DsRed-loxP-EGFP, which were prepared in the same manner as in the Examples of PTL 2, were incubated with His-tag fusion Cre (Cre-Hiss) (10 μM) in the presence of HAad, HA/E2, or L17E (40 μM each) for 1 hour. This system was designed to express EGFP when intracellular release of Cre protein induces genetic recombination. […] The proportions of GFP-expressing cells in the cells treated with HAad, HA/E2, and L17E were 41%, 36%, and 30%, respectively. Considering the fact that the EGFP expression efficiency achieved with no administration of a release peptide was 9%, peptide administration of HAad, HA/E2, and L17E can be considered to increase genetic recombination by 32%, 27%, and […], respectively, as compared with no peptide administration.

The next data set deals with cells. Briefly: Cell viability 24 hours after peptide treatment in the presence of serum (WST-8). To be noted: 10-40 μM; α-MEM(+) 24 hours. In kind it is cell-based. The protocol:
(§1) After the cells were incubated in the presence of HAad, HA/E2, or L17E (each 10 μM, 20 μM, and 40 μM) in α-MEM(+) medium for 24 hours, the cell viability (%) was evaluated by WST-8 assay (FIG. 14). The cell viability (%) after 24 hours with the use of any peptide at any concentration was almost 100%.

Assay in data set [6]: as above
To be noted: cells (cell line not given); peptide 10 μM, 20 μM and 40 μM; α-MEM(+) 24 hours; WST-8. In kind it is cell-based. The protocol:
as §1

The test system of data set [7] is HeLa cells. Briefly: Release of Alexa 488-dextran (10 kDa) into the cytoplasm, confocal microscopy. It is filed as cell-based. The note with it: Alexa 488-dextran (10 kDa) 200 μg/mL, 1 hour, read-out: peptide concentration required to detect the signal of intracellularly released Alexa 488-dextran in 50% of the cells.
The test system of another data set is NIH3T3 cells. Briefly: Intracellular release of dextran (10 kDa) in NIH3T3 cells. In kind it is cell-based. To be noted: peptide 40 μM, dextran (10 kDa), DEME(−) medium 1 hour. The method, then:
Intracellular release of dextran is more difficult in NIH3T3 cells than in HeLa cells. NIH3T3 cells and dextran (10 kDa) were incubated in the presence of HAad, HA/E2, or L17E (40 μM each) in DEME(−) medium for 1 hour in the same manner as in Example 6.

The nature of data set [8]: Helix content from CD spectra in the presence of POPC/POPG (3:1) liposomes. It is filed as physicochemical. The note with it: result in words (FIG. 1). The protocol:
The helix content was calculated by the method of Y. H. Chen et al., 1972, based on 222-nm molar ellipticity ([…]) using the following formula: Helicity (%)=−([θ]222+2340)/30300*100.
The helix content of the peptides obtained in Example 1 (L17E, L17E/Q21E, L17Aad, HA/E1, HA/E2, and HAad) was calculated in the presence of POPC/POPG (3:1) liposomes by the method of Y. H. Chen et al., 1972, based on 222-nm molar ellipticity ([θ]222) using the following formula: Helix content (%)=−([θ]222+2340)/30300*100. Further, the CD spectra of the peptides were measured.

[9] abbreviates: HeLa, 40 μM, 1 hour in α-MEM(−), Lipofectamine LTX/pCI complex overnight in α-MEM(+).

The viability is the share of living cells, or the viability signal relative to a control.

As to “H-IWLTALZFLGZAAAZAXAZQXLSZL-amide (H-IWLTAL[hArg]FLG[hArg]AAA[hArg]A[Aad]A[hArg]Q[Aad]LS[hArg]L-NH2; SMILES CC[C@H](C)[C@H](N)C(=O)N[C@@H](Cc1c[nH]c2ccccc12)C(=O)N[C@@H](CC(C)C)C(=O)N[C@H](C(=O)N[C@@H](C)C(=O)N[C@@H](CC(C)C)C(=O)N[C@@H](CCCCNC(=N)N)C(=O)N[C@@H](Cc1ccccc1)C(=O)N[C@@H](CC(C)C)C(=O)NCC(=O)N[C@@H](CCCCNC(=N)N)C(=O)N[C@@H](C)C(=O)N[C@@H](C)C(=O)N[C@@H](C)C(=O)N[C@@H](CCCCNC(=N)N)C(=O)N[C@@H](C)C(=O)N[C@@H](CCCC(=O)O)C(=O)N[C@@H](C)C(=O)N[C@@H](CCCCNC(=N)N)C(=O)N[C@@H](CCC(N)=O)C(=O)N[C@@H](CCCC(=O)O)C(=O)N[C@@H](CC(C)C)C(=O)N[C@@H](CO)C(=O)N[C@@H](CCCCNC(=N)N)C(=O)N[C@@H](CC(C)C)C(N)=O)[C@@H](C)O; listed as Lycosa carolinensis) [HAad-homoR]”, the “cells in which release of Alexa 488-dextran into the cytoplasm was observed” value in the data set with HeLa cells [1] (peptide 20 μM, Alexa 488-dextran (10 kDa) 200 μg/mL, 1 hour in α-MEM(−)) was 75%.

Take “IWLTALKFLGKHAAKHEAKQQLSKL-NH2 [L17E, IWLTALX^5FLGX^6HAAX^7HEAX^8QQLSX^9L-amide, reference compound]”: in the data set with HeLa cells [2] (IgG 500 μg/mL, 1 hour), the “peptide concentration required to detect the signal of intracellularly released human immunoglobulin in 35% of the cells” value amounted to 40 µM. The “cells in which intracellular release of human immunoglobulin was observed” value was “about 15%” in the data set with HeLa cells [2] (peptide 20 μM, IgG 500 μg/mL); “about 10%” with HeLa cells [2] (peptide 40 μM, IgG 50 μg/mL); ~35% with HeLa cells [2] (peptide 40 μM, IgG 500 μg/mL). Also, the “effect on mitochondrial membrane (cells emitting red JC-1 fluorescence), in words” value (“effect on mitochondrial membrane” below) in [3] (setting [9]) was “decreased slightly”. Moreover, the “cells in which Alexa 488-dextran release into the cytosol was observed” value in the data set on HeLa cells [1] (peptide 40 μM, Alexa 488-dextran (10 kDa) 200 μg/mL, 1 hour in α-MEM(−)) is reported as “about 50%”. Further, in the data set on HeLa cells [4], the “cells in which localization of NLS-EGFP in the nuclei was observed” value is ~56%. Besides, in [5], the “proportion of GFP-expressing cells” value is given as 30%. Also, the “increase of genetic recombination as compared with no peptide administration” value in data set [5] was 22%. For the same molecule, the “toxicity, in words” value in the data set with cells was “no significant toxicity”. In data set [6], the viability at 24 h is ~100%. Moreover, the EC50 in the data set on HeLa cells [7] worked out at 40 µM. For the same molecule, the “cells in which intracellular release of dextran was observed” value in the data set on NIH3T3 cells was ~17%.

For the molecule “H-IWLTALKFLGKAAAKAEAKQELSKL-NH2 [HA/E2, IWLTALX^5FLGX^6AAAX^7AEAX^8QELSX^9L-amide]”, the “cells in which intracellular release of human immunoglobulin was observed” value with HeLa cells [2] (peptide 40 μM, IgG 500 μg/mL) is ~45%. Further, in data set [3] (setting [9]), the “effect on mitochondrial membrane” value is recorded as “no significant difference from the untreated case”. The “endosome-encapsulated substance (Alexa 488-dextran) releasing activity, in words” value in the data set with HeLa cells [1] (peptide 40 μM, Alexa 488-dextran 200 μg/mL, 1 hr, compared with L17E) was “higher endosomal content release activity than L17E; also recorded: Significant outflow; also recorded: equivalent to that of HA/E1; also recorded: significantly higher endosome-encapsulated substance releasing activity than L17E”. For the same molecule, in data set [5], the “proportion of GFP-expressing cells” value worked out at 36% and the “increase of genetic recombination as compared with no peptide administration” value came out at 27%. In data set [8], the “helicity in the presence of an acidic lipid membrane” value was “high helicity”. The “toxicity, in words” value in the data set on cells is recorded as “no significant toxicity”. Moreover, in data set [6], the viability at 24 h was ~100%. The “cells in which intracellular release of dextran was observed” value with NIH3T3 cells is ~25%.

On to `N#CC(C#N)=NNc1ccc(OC(F)(F)F)cc1` [FCCP, carbonyl cyanide-p-trifluoromethoxyphenylhydrazone, reference compound], for which, in [3], the “effect on mitochondrial membrane” value is given as “changed to emit green fluorescence”.
